The source of these data is patent US10683293B2, “Optionally fused heterocyclyl-substituted derivatives of pyrimidine useful for the treatment of inflammatory, metabolic, oncologic and autoimmune diseases” (NUEVOLUTION A/S, priority 2014, dated 2020).

This assay deals with T1, human RORγt (Ligand Binding Domain) (Homo sapiens, UniProt P51449).
T1 construct: purchased Crelux (Planegg, Germany) batch no PC5032-1
T1 sequence (P51449 269-508 limits assumed): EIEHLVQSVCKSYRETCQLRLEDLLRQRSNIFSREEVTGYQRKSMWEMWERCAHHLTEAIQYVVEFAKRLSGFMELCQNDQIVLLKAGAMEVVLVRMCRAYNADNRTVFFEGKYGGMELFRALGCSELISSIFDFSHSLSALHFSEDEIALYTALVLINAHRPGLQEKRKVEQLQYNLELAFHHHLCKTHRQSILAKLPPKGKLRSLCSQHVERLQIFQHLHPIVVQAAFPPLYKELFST
Put plainly: Fluorescence Polarization (FP) Assay. Conditions: 100 nM human RORγt LBD, 25 nM TAMRA probe, values are activity range bounds. As to the method: The activity of the compounds was evaluated using a Fluorescence Polarization (FP) Assay and, RORγ Reporter assay (also referred to as Gal4 assay). The FP assay is an in vitro assay monitoring binding within the ligand binding pocket. The RORγ and the Th17 assays (another suitable assay) are both cell-based assays monitoring functional activity of the compound assayed.
Fluorescence Polarization (FP) Assay
The total volume was 25 μl, in a black Perkin Elmer OptiPlate. As negative control, 1 μl DMSO was used. […] The probe is a fluorescently labeled (TAMRA) RORγt ligand identified by Nuevolution with a total molecular weight of 910 g/mole as shown in Graph A in FIG. 1.
For the compound `Fc1c(NCc2ccccc2)ncnc1N(Cc1ccc(C(F)(F)F)cc1)C1CC1` [Example A40, N6-benzyl-N4-cyclopropyl-5-fluoro-N4-[[4-(trifluoromethyl)phenyl]methyl] pyrimidine-4,6-diamine], the IC50 is less than 1000 nM.

In turn, `Fc1c(NCc2ccncc2)ncnc1N(Cc1ccc(C(F)(F)F)cc1)C1CC1` [Example A41, N4-cyclopropyl-5-fluoro-N6-(4-pyridylmethyl)-N4-[[4-(trifluoromethyl)phenyl]methyl] pyrimidine-4,6-diamine] returned a half-maximal inhibitory concentration (IC50) of less than 500 nM.

`COC1CCCCC1CNc1ncnc(N(Cc2ccc(C(F)(F)F)cc2)C2CC2)c1F` (stereo not shown) [Example A43, N4-cyclopropyl-5-fluoro-N6-[(2-methoxycyclohexyl)methyl]-N4-[[4-(trifluoromethyl)phenyl]methyl] pyrimidine-4,6-diamine] had an IC50 of less than 1000 nM.

`OC1(CNc2ncnc(N(Cc3ccc(C(F)(F)F)cc3)C3CC3)c2F)CCC(F)(F)CC1` [Example A44, 1-[[[6-[cyclopropyl-[[4-(trifluoromethyl)phenyl]methyl]amino]-5-fluoro-pyrimidin-4-yl]amino]methyl]-4,4-difluoro-cyclohexanol] registered an IC50 of less than 500 nM.

With `CS(=O)(=O)CC1(CNc2ncnc(N(Cc3ccc(C(F)(F)F)cc3)C3COC3)c2F)CCOCC1` [Example A45, 5-fluoro-N6-[[4-(methylsulfonylmethyl)tetrahydro-pyran-4-yl]methyl]-N4-(oxetan-3-yl)-N4-[[4-(trifluoromethyl)phenyl]methyl] pyrimidine-4,6-diamine], the IC50 is less than 2000 nM.

For `CC(C)(C)OC(=O)NCC(c1ccc(C(F)(F)F)cc1)N(c1ncnc(NCc2ccc(CC(N)=O)cc2)c1F)C1CC1` (stereo not shown) [Example A47, tert-butyl N-[2-[[6-[[4-(2-amino-2-oxo-ethyl)phenyl]methylamino]-5-fluoro-pyrimidin-4-yl]-cyclopropyl-amino]-2-[4-(trifluoromethyl)phenyl]ethyl] carbamate], the IC50 is less than 10000 nM.

`CS(=O)(=O)N1CCC(O)(CNc2ncnc(N(Cc3ccc(C(F)(F)F)cc3)C3CC3)c2F)CC1` [Example A69, 4-[[[6-[cyclopropyl-[[4-(trifluoromethyl)phenyl]methyl]amino]-5-fluoro-pyrimidin-4-yl]amino]methyl]-1-methylsulfonyl-piperidin-4-ol] showed an IC50 of less than 500 nM.

`O=C(O)CC1(CNc2ncnc(N(Cc3ccc(C(F)(F)F)cc3)C3CC3)c2F)CCS(=O)(=O)CC1` [Example A72, 2-[4-[[[6-[cyclopropyl-[[4-(trifluoromethyl)phenyl]methyl]amino]-5-fluoro-pyrimidin-4-yl]amino]methyl]-1,1-dioxo-thian-4-yl]acetic acid]: the IC50 was less than 10000 nM.

Turning to `N#CNC(=O)c1ccc(CNc2ncnc(N(Cc3ccc(C(F)(F)F)cc3)C3CC3)c2F)cc1` [Example A84, N-cyano-4-[[[6-[cyclopropyl-[[4-(trifluoromethyl)phenyl]methyl]amino]-5-fluoro-pyrimidin-4-yl]amino]methyl]benzamide], the half-maximal inhibitory concentration (IC50) is less than 500 nM.

With `O=C(O)CC1CC(CNc2ncnc(N(Cc3ccc(C(F)(F)F)cc3)C3CC3)c2F)C1` (stereo not shown) [Example A92, 2-[3-[[[6-[cyclopropyl-[[4-(trifluoromethyl)phenyl]methyl]amino]-5-fluoro-pyrimidin-4-yl]amino]methyl]cyclobutyl]acetic acid], the IC50 is less than 10000 nM.

In turn, `N#Cc1ccc(CN(c2ncnc(NCc3ccc(CC(N)=O)cc3)c2F)C2CC2)cn1` [Example A93, 2-[4-[[[6-[(6-cyano-3-pyridyl)methyl-cyclopropyl-amino]-5-fluoro-pyrimidin-4-yl]amino]methyl]phenyl]acetamide] gave an IC50 of less than 2000 nM.

`NC(=O)C1CC(CNc2ncnc(N(Cc3ccc(C(F)(F)F)cc3)C3CC3)c2F)C1` (stereo not shown) [Example A96, 3-[[[6-[cyclopropyl-[[4-(trifluoromethyl)phenyl]methyl]amino]-5-fluoro-pyrimidin-4-yl]amino]methyl]cyclobutane-carboxamide]: the IC50 is less than 10000 nM.

In turn, `NC(=O)Cc1ccc(CNc2ncnc(N(Cc3ccc(C(F)(F)F)nn3)C3CC3)c2F)cc1` [Example A99, 2-[4-[[[6-[cyclopropyl-[[6-(trifluoromethyl)pyridazin-3-yl]methyl]amino]-5-fluoro-pyrimidin-4-yl]amino]methyl]phenyl]acetamide] gave an IC50 of less than 10000 nM.

`CS(=O)(=O)N1CCC(C(=O)Nc2ncnc(N(Cc3ccc(C(F)(F)F)cc3)C3CC3)c2F)CC1` [Example A100, N-[6-[cyclopropyl-[[4-(trifluoromethyl)phenyl]methyl]amino]-5-fluoro-pyrimidin-4-yl]-1-methylsulfonyl-piperidine-4-carboxamide] displayed an IC50 of less than 10000 nM.

`O=S(=O)(Nc1ccc(CNc2ncnc(N(Cc3ccc(C(F)(F)F)nc3)C3CC3)c2F)cc1)C(F)F` [Example A105, N-[4-[[[6-[cyclopropyl-[[6-(trifluoromethyl)-3-pyridyl]methyl]amino]-5-fluoro-pyrimidin-4-yl]amino]methyl]phenyl]-1,1-difluoro-methanesulfonamide] had an IC50 of less than 10000 nM.

`O=S(=O)(Nc1ccc(CNc2ncnc(N(Cc3ccc(C(F)(F)F)cn3)C3CC3)c2F)cc1)C(F)F` [Example A106, N-[4-[[[6-[cyclopropyl-[[5-(trifluoromethyl)-2-pyridyl]methyl]amino]-5-fluoro-pyrimidin-4-yl]amino]methyl]phenyl]-1,1-difluoro-methanesulfonamide]: the IC50 is less than 10000 nM.

As to `CS(=O)(=O)Nc1ncc(CNc2ncnc(N(Cc3ccc(C(F)(F)F)cc3)C3CC3)c2F)cn1` [Example A111, N-[5-[[[6-[cyclopropyl-[[4-(trifluoromethyl)phenyl]methyl]amino]-5-fluoro-pyrimidin-4-yl]amino]methyl]pyrimidin-2-yl]methanesulfonamide], the IC50 was less than 1000 nM.

Regarding `NC(=O)Cc1ccc(CNc2ncnc(N(Cc3ccc(C(F)(F)F)nc3)C3CC3)c2F)cn1` [Example A112, 2-[5-[[[6-[cyclopropyl-[[6-(trifluoromethyl)-3-pyridyl]methyl]amino]-5-fluoro-pyrimidin-4-yl]amino]methyl]-2-pyridyl]acetamide], the IC50 was less than 2000 nM.

Regarding `NC(=O)Cc1ccc(CNc2ncnc(N(Cc3ccc(C(F)(F)F)cn3)C3CC3)c2F)cn1` [Example A113, 2-[5-[[[6-[cyclopropyl-[[5-(trifluoromethyl)-2-pyridyl]methyl]amino]-5-fluoro-pyrimidin-4-yl]amino]methyl]-2-pyridyl]acetamide], the 50% inhibitory concentration (IC50) is less than 10000 nM.

Turning to `CS(=O)(=O)c1ccc(CNc2ncnc(N(Cc3ccc(C(F)(F)F)nc3)C3CC3)c2F)nc1` [Example A114, N4-cyclopropyl-5-fluoro-N6-[(5-methylsulfonyl-2-pyridyl)methyl]-N4-[[6-(trifluoromethyl)-3-pyridyl]methyl]pyrimidine-4,6-diamine], the IC50 is less than 500 nM.

`CS(=O)(=O)c1ccc(CNc2ncnc(N(Cc3ccc(C(F)(F)F)cn3)C3CC3)c2F)nc1` [Example A115, N4-cyclopropyl-5-fluoro-N6-[(5-methylsulfonyl-2-pyridyl)methyl]-N4-[[5-(trifluoromethyl)-2-pyridyl]methyl]pyrimidine-4,6-diamine] displayed an IC50 of less than 500 nM.

`CN(Cc1cccc2ccccc12)c1ncnc(NCc2ccc(CC(N)=O)cc2)c1F` [Example A118, 2-[4-[[[5-fluoro-6-[methyl(1-naphthylmethyl)amino]pyrimidin-4-yl]amino]methyl]phenyl]acetamide]: the IC50 is less than 500 nM.

Take `Cn1cc(CN(c2ncnc(NCc3ccc(CC(N)=O)cc3)c2F)C2CC2)cn1` [Example A119, 2-[4-[[[6-[cyclopropyl-[(1-methylpyrazol-4-yl)methyl]amino]-5-fluoro-pyrimidin-4-yl]amino]methyl]phenyl]acetamide]: the half-inhibitory concentration (IC50) was less than 2000 nM.

Take `CN(Cc1ccc2ccccc2c1)c1ncnc(NCc2ccc(CC(N)=O)cc2)c1F` [Example A121, 2-[4-[[[5-fluoro-6-[methyl(2-naphthylmethyl)amino]pyrimidin-4-yl]amino]methyl]phenyl]acetamide]: the IC50 was less than 500 nM.

In the case of `CN(Cc1ccccc1OC(F)(F)F)c1ncnc(NCc2ccc(CC(N)=O)cc2)c1F` [Example A122, 2-[4-[[[5-fluoro-6-[methyl-[[2-(trifluoromethoxy)phenyl]methyl]amino]pyrimidin-4-yl]amino]methyl]phenyl]acetamide], the IC50 is less than 500 nM.

In turn, `CCN(Cc1cn(CC)nc1C)c1ncnc(NCc2ccc(CC(N)=O)cc2)c1F` [Example A123, 2-[4-[[[6-[ethyl-[(1-ethyl-3-methyl-pyrazol-4-yl)methyl]amino]-5-fluoro-pyrimidin-4-yl]amino]methyl]phenyl]acetamide] came in with an IC50 of less than 10000 nM.

`CCN(Cc1cccc2c1OCO2)c1ncnc(NCc2ccc(CC(N)=O)cc2)c1F` [Example A126, 2-[4-[[[6-[1,3-benzodioxol-4-ylmethyl(ethyl)amino]-5-fluoro-pyrimidin-4-yl]amino]methyl]phenyl]acetamide]: the IC50 is less than 500 nM.

Turning to `CN(Cc1cccc(OC(F)F)c1)c1ncnc(NCc2ccc(CC(N)=O)cc2)c1F` [Example A127, 2-[4-[[[6-[[3-(difluoromethoxy)phenyl]methyl-methyl-amino]-5-fluoro-pyrimidin-4-yl]amino]methyl]phenyl]acetamide], the IC50 is less than 500 nM.
